According to patent US20140162285A1, “Methods of Modulating Vesicular Trafficking” (The General Hospital Corporation, priority 2009, published 2014):
Peptide text beside a SMILES is read from it. * marks the point of attachment. Biotin = O=C1N[C@H]2[C@H](CS[C@H]2CCCCC(=O)*)N1

T1: PH-domain of ARNO (Homo sapiens, UniProt Q99418)
T1 construct: iv) 253-378aa, plekstrin-homology (PH) domain; made in house; host or cells: E. coli BL21(DE3)
T1 sequence (Q99418 253-378): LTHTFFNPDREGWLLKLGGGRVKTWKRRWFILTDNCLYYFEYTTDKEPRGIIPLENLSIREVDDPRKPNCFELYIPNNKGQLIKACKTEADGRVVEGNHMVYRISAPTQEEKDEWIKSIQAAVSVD

T2: ARNO CC-domain (Homo sapiens, UniProt Q99418)
T2 construct: ii) 1-60aa, coiled-coil (CC) domain; made in house; host or cells: E. coli BL21(DE3)
T2 sequence (Q99418 1-60): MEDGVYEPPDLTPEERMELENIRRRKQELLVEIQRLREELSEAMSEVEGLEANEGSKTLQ

B1: a2N: recombinant N-terminal cytosolic tail, amino acid residues 1-402 of mouse V-ATPase a2-subunit (protein)
chain: MGSLFRSESMCLAQLFLQSGTAYECLSALGEKGLVQFRDLNQNVSSFQRKFVGEVKRCEELERILVYLVQEITRADIPLPEGEASPPAPPLKHVLEMQEQLQKLEVELREVTKNKEKLRKNLLELVEYTHMLRVTKTFLKRNVEFEPTYEEFPALENDSLLDYSCMQRLGAKLGFVSGLIQQGRVEAFERMLWRACKGYTIVTYAELDECLEDPETGEVIKWYVFLISFWGEQIGHKVKKICDCYHCHIYPYPNTAEERREIQEGLNTRIQDLYTVLHKTEDYLRQVLCKAAESVCSRVVQVRKMKAIYHMLNMCSFDVTNKCLIAEVWCPEVDLPGLRRALEEGSRESGATIPSFMNTIPTKETPPTLIRTNKFTEGFQNIVDAYGVGSYREVNPALFTII
modifications: left off: small tags and cut ends
notes: recombinant N-terminal cytosolic tail, amino acid residues 1-402 of mouse V-ATPase a2-subunit

Tests used:
PH-domain of ARNO = target: T1, PH-domain of ARNO; test: a2N-derived peptide pull-down with GST-PH domain; assay type: binding
Procedure: FIGS. 5A-C are a set of three images of Western blots showing the identification of interaction motif of a2N that is involved in specific binding with the Sec7 domain of ARNO. 5A, The catalytic Sec7 domain of ARNO interacts with two a2N-derived peptides, a2N-01 and a2N-03, in pull-down experiments. The peptide pull-down assay was performed with six a2N-derived interaction peptides immobilized on streptavidin-beads and incubated with purified recombinant GST-only or GST-Sec7 domain. Interacting complexes were eluted and analyzed by Western blotting using monoclonal anti-GST antibodies as described below. The loading controls for GST-only (lane 1) or GST-Sec7 (lane 2) are shown. […] The peptide pull-down assay was performed with peptides a2N-01 and a2N-03 immobilized on streptavidin-beads and incubated with purified recombinant GST-PH domain (5B) or GST-PB domain (5C). Interacting complexes were eluted and analyzed by Western blotting using monoclonal anti-GST antibodies. […]
These a2N-derived peptides were immobilized by an N-terminal biotin-tag, which ensured the same efficiency and equivalent binding to streptavidin-agarose beads. […] After washing beads four times in ice-cold binding buffer, the interacting complexes were eluted by boiling in SDS-PAGE sample buffer for 10 min at 95° C., resolved by SDS-PAGE and analyzed by Western blotting using monoclonal anti-GST antibody. […]

ARNO CC-domain = target: T2, ARNO CC-domain; test: GST pull-down of in vitro translated a2N with ARNO CC-domain; assay type: binding; settings: Western blot anti-a2N
Procedure: The purified recombinant GST-ARNO(wt) and GST-tagged ARNO domain constructs ([…]) were incubated with 10 μl of in vitro translated 6His-a2N recombinant protein at 4° C. for 2 hours in 500 μl of binding buffer (10 mM HEPES, 1 mM EDTA, 1 mM DTT, 100 mM NaCl, 10% glycerol, 0.1% NP-40) with gentle rotation. Then the interacting recombinant proteins were immobilized on glutathione beads by incubation with 50 μl of 50% glutathione Sepharose 4B slurry for 2 hours at 4° C. The beads were collected by centrifugation and washed 5 times with 500 μl ice-cold binding buffer. Interacting proteins were eluted by boiling in SDS-PAGE sample buffer for 10 min at 95° C., resolved by SDS-PAGE and analyzed by Western blotting using polyclonal anti-a2N antibodies. […]
To examine the ability of these well-defined and functionally distinct domains of ARNO to interact with a2N1-402, full-length ARNO(wt) and its four domains were cloned separately for bacterial expression of recombinant proteins (FIG. 3). […] Interacting proteins were detected by western blot analysis with a2-specific antibodies as described above.

Molecule | interaction with PH-domain of ARNO (PH-domain of ARNO) | interaction of a2N with ARNO CC-domain (ARNO CC-domain)
CSCC[C@H](NC(=O)CCCC[C@@H]1SC[C@@H]2NC(=O)N[C@@H]21)C(=O)NCC(=O)N[C@@H](CO)C(=O)N[C@@H](CC(C)C)C(=O)N[C@@H](Cc1ccccc1)C(=O)N[C@@H](CCCNC(=N)N)C(=O)N[C@@H](CO)C(=O)N[C@@H](CCC(=O)O)C(=O)N[C@@H](CO)C(=O)N[C@@H](CCSC)C(=O)N[C@@H](CS)C(=O)N[C@@H](CC(C)C)C(=O)N[C@@H](C)C(=O)N[C@@H](CCC(N)=O)C(=O)N[C@@H](CC(C)C)C(=O)N[C@@H](Cc1ccccc1)C(=O)N[C@@H](CC(C)C)C(=O)N[C@@H](CS)C(=O)O [a2N-01, Bio-MGSLFRSE SMCLAQLFL-Cys] (Biotin-MGSLFRSESMCLAQLFLC-OH; N-terminus and C-terminus assumed) | does not interact | –
B1 | – | no interaction
